Source: US20170002385A1, “USING CELL DEBRIS GENERATED FROM PHA RECOVERY FOR ENHANCED CELL GROWTH AND BIOPOLYESTER FORMATION” (BIO ON S.r.l., priority 2009, published 2017)
Values joined by “and” are separate entries in the source; they are usually repeats but may differ in a detail not shown here. Equal entries are not always repeated.

Test system: PHA-producing microbial cells
Test: flask cultures: effect of cell debris solutions and SDS on cell growth and PHA formation
Type: cell-based
Details: for Cell mass: 12 g/L glucose
Protocol: Starting with cell mass of high PHA content (72% w/w), production of 1 kg of PHA, in a purity of 96.4 w/w, generates about 0.45 kg of cell debris as shown in the scheme reported above. Disposal of this large amount of waste in aqueous solution is a task of high cost, but could be avoided with additional benefit if the cell debris could be reused in PHA fermentation. In order to reveal the effect of cell debris on cell growth and PHA formation, microbial cultures were conducted in 500 mL flasks in parallel. The flask cultures were set up with the same glucose concentrations (10-20 g/L), the same volume of mineral solution (160 mL) as shown in Table 1 reported hereinbelow, and the same inoculum and size. After predetermined amount of cell debris solutions were added, the total volume of flask cultures was raised to 200 mL by adding pre-sterilized distilled and deionized water. The flasks were shaken at 200 rpm and 30 ° C. in a rotary incubator for 24 or 48 hours. The cell mass concentration and PHA content were determined as described in the literature (see Jian Yu and Lilian X. L. Chen (2006), “Cost-effective recovery and purification of polyhydroxyalkanoates by selective dissolution of cell mass”, Biotechnology Progress, 22:547-553). […]
Surfactants such as SDS are optionally used in PHA recovery to disrupt cells and remove lipids and pigments from polyesters. They are soluble and left in the cell debris solutions, which may cause adverse effect on cell growth when the cell debris solution is reused in PHA fermentation. An acid-base cell debris solution containing 48.5 g/L of soluble solids and 5 g/L of SDS was used in this case. In the same flask cultures above (12 g/L of glucose), 8 mL of ABCDS was added to give 1.94 g/L of cell debris and 0.2 g/L of SDS. Additional SDS was also added to increase SDS concentration to 0.4, 0.6 and 0.8 g/L. Table 4 gives the results of cell growth and PHA formation at different surfactant levels. […] The benefit of cell debris at low SDS concentration (0.2-0.4 g/L) leads to 200-300% of increase in PHA concentration in comparison with the control.

## CCCCCCCCCCCCOS(=O)(=O)[O-].[Na+] [SDS, sodium dodecyl sulfate]
SDS 0.2-0.6 g/L with 1.94 g/L cell debris
  PHA formation vs control without cell debris and surfactant: enhanced
SDS 0.2 g/L with 1.94 g/L cell debris (ABCDS), 24 hours
  Cell mass: 3.69 g/L
SDS 0.2 g/L with 1.94 g/L cell debris (ABCDS), 48 hours
  Cell mass: 4.99 g/L
SDS 0.4 g/L with 1.94 g/L cell debris (ABCDS), 24 hours, sulfate
  Cell mass: 3.22 g/L and 3.33 g/L
SDS 0.4 g/L with 1.94 g/L cell debris (ABCDS), 48 hours, sulfate
  Cell mass: 4.46 g/L and 4.62 g/L
SDS 0.6 g/L with 1.94 g/L cell debris (ABCDS), 24 hours
  Cell mass: 2.70 g/L
SDS 0.6 g/L with 1.94 g/L cell debris (ABCDS), 48 hours
  Cell mass: 3.51 g/L
SDS 0.8 g/L with 1.94 g/L cell debris
  PHA formation vs control without cell debris and surfactant: damaged to a great extent
SDS 0.8 g/L with 1.94 g/L cell debris (ABCDS), 24 hours
  Cell mass: 2.59 g/L
SDS 0.8 g/L with 1.94 g/L cell debris (ABCDS), 48 hours
  Cell mass: 3.54 g/L
